This is an account of results in patent US8003630B2, “Combinatorial therapies for the treatment of neoplasias using the opioid growth factor receptor” (The Penn State Research Foundation, priority 2004, dated 2011).

Marks after values point to notes of the source that are not given here.

One data set has as its system PANC-1 cells. Put plainly: Growth assay of PANC-1 cells in 6-well plates. The data set is classed as cell-based, human. Particulars: 72 hr, OGF 10^−6 M and/or gemcitabine 10^−8 M. How it is done:
(§1) MIA PaCa-2 and PANC-1 human pancreatic adenocarcinoma cell lines were purchased from the American Type Culture Collection (Manasass, Va.). MIA PaCa-2 cells were derived from an undifferentiated epithelial carcinoma occurring in the body and tail of the pancreas in a person. The PANC-1 cells were derived from an undifferentiated carcinoma from the head of the pancreas in a person. MIA PaCa-2 and PANC-1 cells were grown in Dulbecco's MEM (modified) media; media was supplemented with 10% fetal calf serum, 1.2% sodium bicarbonate, and antibiotics (5,000 Units/ml penicillin, 5 mg/ml streptomycin, 10 mg/ml neomycin), and the cells were maintained in a humidified atmosphere of 7% CO2/93% air at 37° C.
MIA PaCa-2 cells were seeded at equivalent amounts into either 75 cm^2 flasks, 6-well plates, or 96-well plates (Falcon) and counted 24 hr later to determine plating efficiency. […]
(§2) Cell number was recorded either by using a mitogenic bioassay, the MTS assay (Cell Titer 96 One Solution, Promega, Madison, Wis.), and measuring absorbency after 4 hr on a Biorad (Model 3550) plate reader at 490 nm, or by counting cells. For manual counts, cells were harvested with a solution of 0.25% trypsin/0.53 mM EDTA, centrif uiged, and counted with a hemacytometer. Cell viability was determined by trypan blue staining. At least two aliquots per flask or 4-10 wells/treatment were counted at each time.

Data set [1] has as its system MiaPaCa-2 cells. Description: Gemcitabine and OGF cell cycle phase analysis by flow cytometry. In kind it is cell-based, human.
Description: To investigate the exact cell cycle phase where gemcitabine and/or OGF exerted their effects, flow cytometry was performed.
In data set [2] the test system is MIA PaCa-2 cells. Put plainly: Growth assays of MIA PaCa-2 cells (MTS assay or cell counting), Example 7. In kind it is cell-based, human. Particulars: for decrease in cell number relative to controls: OGF 10^−6 M and/or gemcitabine 10^−8 M. On the procedure:
as §1
MIA PaCa-2 cells were seeded at equivalent amounts into either 75 cm^2 flasks, 6-well plates, or 96-well plates (Falcon) and counted 24 hr later to determine plating efficiency. Growth assays for PANC-1 cells were conducted in 6-well plates (Falcon). Compounds or sterile water were added beginning 24 hr after seeding (=0 hr), and both media and compounds were replaced daily. All drugs were prepared in sterile water and dilutions represent final concentrations of the compounds.
as §2

The test system of data set [3] is MiaPaCa-2 cells. Description: Gemcitabine growth curve, actual cell counts. In kind it is cell-based, human. Conditions: MiaPaCa-2 cell counts.
Data set [4] deals with MiaPaCa-2 cells. Put plainly: OGF/gemcitabine treatment in athymic nude mouse model (Example 5). In kind it is in vivo, athymic nude mice. Conditions: day 16 after tumor cell inoculation.
Excerpt: To examine the effectiveness of the combined OGF/gemcitabine treatments in vivo, an athymic nude mouse model was used.
Data set [5] has as its system MIA PaCa-2 cells. Description: MIA PaCa-2 xenograft in nude mice, tumor appearance, growth and termination day measurements (Example 7). The data set is classed as in vivo, BALB/c-nu/nu nude mice. An excerpt: Male 4 week old BALB/c-nu/nu nude mice purchased from Harlan Laboratories (Indianapolis, Ind.) were housed in pathogen-free isolators in the Department of Comparative Medicine at the Penn State University College of Medicine. All procedures were approved by the IACUC committee of the Penn State University College of Medicine and conformed to the guidelines established by NIH. Mice were allowed 48 hr to acclimate prior to beginning experimentation.
MIA PaCa-2 cells (10^6 cells/mouse) were inoculated into nude mice by subcutaneous injection into the right scapular region; mice were not anesthetized for this procedure.
All drugs were dissolved in saline and prepared weekly. Injections were given within 1 hr of tumor cell inoculation.
Mice were weighed weekly throughout the experiment, and observed daily for the presence of tumors. The latency for a visible tumor to appear, and the time until tumors were measurable (i.e., 62.5 mm^3) were recorded. Tumors were measured using calipers every day after tumor appearance. Tumor volume was calculated using the formula w^2×1×π/6, where the length is the longest dimension, and width is the dimension perpendicular to length.
According to IACUC guidelines, mice were terminated when tumors became ulcerated, or tumors grew to 2 cm in diameter. Forty-five days following tumor cell inoculation, all mice were euthanized by an overdose of sodium pentobarbital (100 mg/kg) and killed by cervical dislocation; mice (with tumors) were weighed. Tumors and spleens were removed and weighed, and the lymph nodes, liver, and spleen examined for metastases.

The conditions of data set [6]: metabolized primarily in the liver; cited from earlier work.
Data set [7] relates to MiaPaCa-2 cells. Description: Growth curves of MiaPaCa-2 cells, cell proliferation (MTT) assay, absorbency. Conditions: for Significance from 5-FU 10^−6 M Values: 5-FU 10^−5 M alone or with OGF; for Significance from 5-FU 10^−5 M Values: 5-FU 10^−6 M alone or with OGF (b: 5-FU 10^−5 M more inhibitory); for decrease in cell number from controls: MiaPaCa-2.
Excerpt: Cells were counted using a standard MTT assay. In general, each data point represents the average absorbency taken from 10 wells/treatment; error bars represent the S.E.M.
The subject of data set [8] is carcinomas of the colon and rectum. Conditions: single agent; cited from earlier work.

Take `Nc1ccn([C@@H]2O[C@H](CO)[C@@H](O)C2(F)F)c(=O)n1` [gemcitabine]: the “fewer cells than in control cultures” value in the data set with PANC-1 cells stood at 31%. The results for the “cells in the G1 phase of the cell cycle” value in the data set with MiaPaCa-2 cells [1] (48 hours of treatment) and in the data set on MiaPaCa-2 cells [1] (120 hours of treatment) were 73.50% and 60.75%, respectively. Moreover, the inhibition at 0.01 µM with MIA PaCa-2 cells [2] (Homo sapiens, MIA PaCa-2, 96 h, read-out: inhibition of cell growth relative to control levels) lay within 13 to 36%. Moreover, the “decrease in cell number relative to controls” value in the data set on MIA PaCa-2 cells [2] (MIA PaCa-2, 48 hr) worked out at 22%; in the data set with MIA PaCa-2 cells [2] (MIA PaCa-2, 72 hr), 21%; in the data set with MIA PaCa-2 cells [2] (MIA PaCa-2, 96 hr), 32%; in the data set with MiaPaCa-2 cells [3] (24 h, gemcitabine 10^−7 M or OGF 10^−6 M alone) it was 30.1%; in the data set with MiaPaCa-2 cells [3] (48 h, gemcitabine 10^−7 M or OGF 10^−6 M alone), 46.4%; in the data set on MiaPaCa-2 cells [3] (48 h, gemcitabine 10^−8 M alone or with OGF 10^−6 M), 21.7%. For the same compound, the “decrease in cell number relative to controls” value with MiaPaCa-2 cells [3] (72 h, gemcitabine 10^−7 M or OGF 10^−6 M alone) is listed as 47.7%; in the data set with MiaPaCa-2 cells [3] (72 h, gemcitabine 10^−8 M alone or with OGF 10^−6 M), 21.2%; with MiaPaCa-2 cells [3] (96 h, gemcitabine 10^−7 M or OGF 10^−6 M alone) it was 64.2%; in the data set with MiaPaCa-2 cells [3] (96 h, gemcitabine 10^−8 M alone or with OGF 10^−6 M), 32.4%. In addition, the “difference in cell number between reversal group and group continuing drug exposure” value with MIA PaCa-2 cells [2] (MIA PaCa-2, 96 hr (48 hr after reversal)) is reported as “did not differ”. In addition, the mice with tumors in the data set on MiaPaCa-2 cells [4] is listed as 75%. The “day from which tumor volume differed from controls” value in the data set with MIA PaCa-2 cells [5] (at least p<0.05) came out at 14 days. Moreover, in the data set on MIA PaCa-2 cells [5] (day 10), the “mice with measurable tumors” value is reported as 75%. For the same compound, the “tumor volumes decreased from control values” with MIA PaCa-2 cells [5] (day 45) amounted to 56%. In addition, in the data set with MIA PaCa-2 cells [5] (day 45), the “weight of the spleen decreased from control values” was “approximately 40%”. Besides, the “Body Weight” value in the data set with MIA PaCa-2 cells [5] (day 45, means ± SEM) was 27.4 ± 0.55 g. For the same compound, in the data set with MIA PaCa-2 cells [5] (day 45, means ± SEM), the “Spleen Weight” value was determined as 454 ± 49 mg. For the same compound, the “Tumor Volume, mm^3” value in the data set with MIA PaCa-2 cells [5] (day 45, means ± SEM) was 3963 ± 123*** mm^3. Also, the “Tumor Weight” value in the data set with MIA PaCa-2 cells [5] (day 45, means ± SEM) stood at 2.4 ± 0.1 g. In the data set on MIA PaCa-2 cells [5] (means ± SEM), the “Latency to measurable tumor” value worked out at 13.1 ± 1.0 days. The “Latency to visible tumor” value with MIA PaCa-2 cells [5] (means ± SEM) worked out at 11.1 ± 1.1 days. For the same compound, the “Tumor Incidence, day 16” value in the data set with MIA PaCa-2 cells [5] (mice with tumor/N) was 11/12. The “Tumor Incidence, day 10” value in the data set on MIA PaCa-2 cells [5] (mice with tumor/N, OGF 10 mg/kg daily and/or gemcitabine 120 mg/kg every 3 days i.p.) is on record as 9/12. The “weights of tumors decreased from control levels” value with MIA PaCa-2 cells [5] (termination day (day 45)) came to 56%.

For the compound `O=c1[nH]cc(F)c(=O)[nH]1` [5-FU, 5-fluorouracil], the “drug appearing unchanged in urine” value in data set [6] is recorded as 10%. Moreover, the “Significance from 5-FU 10^−6 M Values” in the data set with MiaPaCa-2 cells [7] (48 h), in the data set with MiaPaCa-2 cells [7] (72 h) and with MiaPaCa-2 cells [7] (96 h) was “###^b (Significantly different from 5-FU 10^−6 M at p < 0.001 (###))” throughout. Besides, the “Significance from 5-FU 10^−5 M Values” in the data set on MiaPaCa-2 cells [7] (48 h), in the data set with MiaPaCa-2 cells [7] (72 h) and with MiaPaCa-2 cells [7] (96 h) was “^^^^b (Significantly different from 5-FU 10^−5 M at p < 0.001)” each time. Further, the “decrease in cell number from controls” value is recorded as 26.0% in the data set with MiaPaCa-2 cells [7] (48 h, 5-FU 10^-5 M and/or OGF 10^−6 M); 12.7% with MiaPaCa-2 cells [7] (48 h, 5-FU 10^-6 M alone or with OGF 10^−6 M); 30.1% in the data set on MiaPaCa-2 cells [7] (72 h, 5-FU 10^-5 M and/or OGF 10^−6 M); 10.8% with MiaPaCa-2 cells [7] (72 h, 5-FU 10^-6 M alone or with OGF 10^−6 M); 36.4% with MiaPaCa-2 cells [7] (96 h, 5-FU 10^-5 M and/or OGF 10^−6 M); 15.2% in the data set on MiaPaCa-2 cells [7] (96 h, 5-FU 10^-6 M alone or with OGF 10^−6 M). The mean response rate result in data set [8] is listed as “less than 20%”.
